Measured values reported in patent US9434687B2, “Detection of synthetic cannabinoids” (priority 2011, dated 2016).
Read-outs that look alike come from different tables or passages of the source.

Columns and labels:
Format in all cases: binding, sheep
[1] = test system: IgG fraction of antiserum raised to Immunogen I
Procedure, shortened: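 Plates were coated with the IgG fraction of sheep antiserum raised to Immunogen I and incubated with standards (JWH-018, 0-40 ng/ml) plus hapten-HRP conjugate for 1 h at 25° C. Detection used TMB, read at 450 nm. IC50 was taken from a 4-parameter fit as the concentration giving half the zero-standard OD.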

[2] = test system: IgG fraction of antiserum raised to Immunogen II; test: Competitive ELISA, antibody RS1833B12 to Immunogen II, tracer ESC4555 (Example 36)
[3] = test system: IgG fraction of antiserum raised to Immunogen VIII
[4] = test system: IgG fraction of antiserum raised to Immunogen IV
[5] = test system: IgG fraction of antiserum raised to Immunogen VII; settings: Antibody to Immunogen VII; cross-reactants at 100 ng/ml; 1000 ng/ml; standard JWH-015
[6] = Antibody to Immunogen I, cross-reactants at 100 ng/ml, 1000 ng/ml, standard JWH-018
[7] = Table 7 standard curve, standard concentration which produces 50% B/B0
[8] = Antibody to Immunogen II, cross-reactants at 100 ng/ml, 1000 ng/ml, standard JWH-018
[9] = Antibody to Immunogen VIII, cross-reactants at 100 ng/ml, 1000 ng/ml, standard JWH-018
[10] = Antibody to Immunogen IV, cross-reactants at 100 ng/ml, 1000 ng/ml, standard JWH-018

## CCCCCn1cc(C(=O)c2cccc3ccccc23)c2ccccc21 [JWH-018]
[1]; [6]
  % B/B0: 5.19%
[1]; JWH-018 0.625 ng/ml
  % B/B0: 77%
[1]; JWH-018 1.25 ng/ml
  % B/B0: 62%
[1]; JWH-018 2.5 ng/ml
  % B/B0: 44%
[1]; JWH-018 5 ng/ml
  % B/B0: 31%
[1]; JWH-018 10 ng/ml
  % B/B0: 20%
[1]; JWH-018 20 ng/ml
  % B/B0: 14%
[1]; JWH-018 40 ng/ml
  % B/B0: 9%
[1]; [7]
  IC50: 2.016 ng/mL
[2]; [8]
  % B/B0: 9.29%
[2]; JWH-018 0.625 ng/ml
  % B/B0: 68%
[2]; JWH-018 1.25 ng/ml
  % B/B0: 53%
[2]; JWH-018 2.5 ng/ml
  % B/B0: 34%
[2]; JWH-018 5 ng/ml
  % B/B0: 25%
[2]; JWH-018 10 ng/ml
  % B/B0: 17%
[2]; JWH-018 20 ng/ml
  % B/B0: 13%
[2]; JWH-018 40 ng/ml
  % B/B0: 10%
[2]; [7]
  IC50: 1.333 ng/mL
[3]; [9]
  % B/B0: 17.66%
[3]; JWH-018 1 ng/ml
  % B/B0: 79%
[3]; JWH-018 3 ng/ml
  % B/B0: 63%
[3]; JWH-018 5 ng/ml
  % B/B0: 51%
[3]; JWH-018 10 ng/ml
  % B/B0: 40%
[3]; JWH-018 20 ng/ml
  % B/B0: 29%
[3]; JWH-018 40 ng/ml
  % B/B0: 22%
[3]; JWH-018 80 ng/ml
  % B/B0: 16%
[3]; Table 9 standard curve, standard concentration which produces 50% B/B0
  IC50: 5.230 ng/mL
[4]; [10]
  % B/B0: 6.80%
[4]; JWH-018 1.25 ng/ml
  % B/B0: 87%
[4]; JWH-018 2.5 ng/ml
  % B/B0: 68%
[4]; JWH-018 5 ng/ml
  % B/B0: 42%
[4]; JWH-018 10 ng/ml
  % B/B0: 26%
[4]; JWH-018 20 ng/ml
  % B/B0: 16%
[4]; JWH-018 40 ng/ml
  % B/B0: 10%
[4]; JWH-018 80 ng/ml
  % B/B0: 7%
[4]; Table 8 standard curve, standard concentration which produces 50% B/B0
  IC50: 4.133 ng/mL
[5]
  % B/B0: 67.66%

## CCCCn1cc(C(=O)c2cccc3ccccc23)c2ccccc21 [JWH-073]
[1]; [6]
  % B/B0: 3.56%
[2]; [8]
  % B/B0: 15.24%
[3]; [9]
  % B/B0: 25.50%
[4]; [10]
  % B/B0: 13.63%
[5]
  % B/B0: 58.34%

## O=C(c1cccc2ccccc12)c1c[nH]c2ccccc12 [N-desalkyl JWH-018, 3-(1-naphthoyl)-1H-Indole]
[1]; [6]
  % B/B0: 15.63%
[2]; [8]
  % B/B0: 99.18%
[3]; [9]
  % B/B0: 90.49%
[4]; [10]
  % B/B0: 95.55%
[5]
  % B/B0: 80.08%

## CCCCCn1cc(C(=O)c2cccc3ccccc23)c2c(O)cccc21 [4-OH JWH-018, JWH-018 4-hydroxyindole metabolite]
[1]; [6]
  % B/B0: 46.39%
[2]; [8]
  % B/B0: 29.49%
[3]; [9]
  % B/B0: 16.72%
[4]; [10]
  % B/B0: 20.42%
[5]
  % B/B0: 89.96%

## O=C(O)CCCCn1cc(C(=O)c2cccc3ccccc23)c2ccccc21 [JWH-018 N-pentanoic acid metabolite]
[1]; [6]
  % B/B0: 4.51%
[2]; [8]
  % B/B0: 85.61%
[3]; [9]
  % B/B0: 100.31%
[4]; [10]
  % B/B0: 99.89%
[5]
  % B/B0: 53.02%

## CCCCCn1cc(C(=O)c2cccc3ccccc23)c2ccc(O)cc21 [6-OH JWH-018, JWH-018 6-hydroxyindole metabolite]
[1]; [6]
  % B/B0: 8.07%
[2]; [8]
  % B/B0: 24.39%
[3]; [9]
  % B/B0: 89.86%
[4]; [10]
  % B/B0: 51.00%
[5]
  % B/B0: 68.17%

## CCCCCn1cc(C(=O)c2ccc(Cl)c3ccccc23)c2ccccc21 [JWH-398]
[1]; [6]
  % B/B0: 60.31%
[2]; [8]
  % B/B0: 30.31%
[3]; [9]
  % B/B0: 18.66%
[4]; [10]
  % B/B0: 6.00%
[5]
  % B/B0: 94.47%

## O=C(c1cccc2ccccc12)c1cn(CCCCCF)c2ccccc12 [AM-2201, 1-(5-Fluoropentyl)indol-3-yl (1-naphthyl) methanone]
[1]; [6]
  % B/B0: 3.72%
[2]; [8]
  % B/B0: 11.72%
[3]; [9]
  % B/B0: 16.74%
[4]; [10]
  % B/B0: 6.20%
[5]
  % B/B0: 55.28%

## O=C(c1cccc2ccccc12)c1cn(CCN2CCOCC2)c2ccccc12 [JWH-200]
[1]; [6]
  % B/B0: 3.51%
[2]; [8]
  % B/B0: 54.02%
[3]; [9]
  % B/B0: 98.81%
[4]; [10]
  % B/B0: 77.08%
[5]
  % B/B0: 42.85%

## CCCCCn1cc(C(=O)c2cccc3ccccc23)c2cc(O)ccc21 [5-OH JWH-018, JWH-018 5-hydroxyindole metabolite]
[1]; [6]
  % B/B0: 11.79%
[2]; [8]
  % B/B0: 12.14%
[3]; [9]
  % B/B0: 87.67%
[4]; [10]
  % B/B0: 78.56%
[5]
  % B/B0: 85.76%

## O=C(c1cccc2ccccc12)c1cn(CCCCCO)c2ccccc12 [JWH-018 N-(5-hydroxypentyl) metabolite]
[1]; [6]
  % B/B0: 3.50%
[2]; [8]
  % B/B0: 53.38%
[3]; [9]
  % B/B0: 57.37%
[4]; [10]
  % B/B0: 78.42%
[5]
  % B/B0: 53.32%
